# “And” between values parts separate entries of the source, which are not always exact repeats. Equal values may be shown once.
# Test system: CCI-rats (chronic constriction injury of the sciatic nerve); tactile allodynia in ipsilateral hindpaw, antinociception in contralateral hindpaw
# Parameters: species or system Sprague-Dawley rats
# Conditions: rat, in vivo
substance,measurement,value
pGlu Gly Val Cys1 Cys2 Gly Tyr Lys Leu Cys3 His Hyp Cys4 [SEQ ID NO: 6],ED10,0.2 nmol
same,ED20,0.4 nmol
same,ED50 for antinociception in the contralateral hindpaw,15.2 nmol
same,ED50 for the alleviation of tactile allodynia in the ipsilateral hindpaw,14.8 (±1.1) nmol and 15.7 (±3.9) nmol
same,change of mean PWT by 5 min post-dosing,more than doubled
same,duration of action,2 to 3 h and > 4 h
same,duration of action relative to a similarly large dose of i.t. morphine (35 nmol),~10 fold
same,duration of anti-allodynic response relative to the 10 nmol dose,> 7 fold and > 13 fold
same,duration of the anti-allodynic response,~30 h and ~54 h
same,effect on PWT in both the ipsilateral and contralateral hindpaws,dose-dependent increase
same,extent and duration (PWT AUCs) of ipsilateral responses relative to contralateral responses,~2 fold
same,time of peak anti-allodynic and antinociceptive effects,1 to 1.5 h
same,time of peak antiallodynic and antinociceptive effects post-dosing,15 min
same,time of peak effect,1 to 1.5 h

# — patent US8188048B2 (priority 2006, dated 2012)
